# In patent US4507297A, “Piperazine derivatives and a medicine containing the same” (priority 1981, dated 1985):
# Structures can show the parent of a compound that is named as a salt. Where two headings read alike, the source gives them in different places.
# Assays:
# [1] = tested on: mice; assay: in vivo; conditions: i.v., tail of mice
# Protocol: (§1) Medicinal substances were administered intravenously from the tails of the mice.
# [2] = tested on: experimental myocardial infarction; assay: Effects against an experimental myocardial infarction (anterior descending artery ligation, necrotic area by planimetry); format: in vivo, rabbit; conditions: for inhibition in vivo at 200 mg/kg: read-out: Inhibition rates (%), T = 200 mg/kg, i.v.
# Protocol: The chest wall of each animal was incised under artificial respiration, and the anterior descending artery was ligated (about 7 mm downward of the starting portion). 24 Hours later, the heart was taken out, and a myocardium between the cadiac apex and the ligated portion was sliced to have a thickness of 2 mm and stained to distinguish the infarction-affected portions by a phosphorylase reaction, whereupon the area of the necrotic portion was calculated by planimetory. Medicinal substances were administered 5 minutes prior to the ligation (T/2 mg/kg, i.v.), continuously from immediately after the ligation to one hour later (T/4 mg/kg/hr, by constant dropping), 2 hours after the ligation (T/8 mg/kg, i.v.) and 3 hours after the ligation (T/8 mg/kg, i.v.). Each medicinal substance was administered in the form of a physiological sodium chloride solution. Where the substance was hardly soluble, it was used in the form of a salt. To a control group was administered only a physiological sodium chloride solution. (T means a total amount of administration.)
# [3] = in vivo; conditions: mouse, in vivo, iv, tail of mice
# Protocol: as §1
# [4] = Oryctolagus cuniculus, iv, 24 h, vs control 14.9 ± 0.7
# [5] = T = 200 mg/kg, i.v., 8 cases, control 14.9 ± 0.7
# [6] = Oryctolagus cuniculus, iv, 24 h, vs control 14.1 ± 1.0
# [7] = T = 200 mg/kg, i.v., 8 cases, control 14.1 ± 1.0
# [8] = Oryctolagus cuniculus, iv, 24 h, T = 40 mg/kg, i.v., vs control 14.1 ± 1.0, read-out: Inhibition rates (%)
# [9] = T = 40 mg/kg, i.v., 8 cases, control 14.1 ± 1.0
smiles,measurement,setting,value
CC(C)C[C@H](NC(=O)[C@@H]1O[C@H]1C(=O)[O-])C(=O)N1CCN(c2ccccn2)CC1.[Na+],MLD (in column LD50 mice),[1],> 1125 mg/kg
same,inhibition in vivo at 200 mg/kg,[2]; [4],22.1%
same,Necrotic area (mean ± S.E. %),[2]; [5],11.6 ± 0.7%
CC(C)C[C@H](NC(=O)[C@@H]1O[C@H]1C(=O)[O-])C(=O)N1CCN(c2ncccn2)CC1.[Na+] [listing 1 of 2 here],inhibition in vivo at 200 mg/kg,[2]; [6],23%
same,Necrotic area (mean ± S.E. %),[2]; [7],11.1 ± 0.7%
CC(C)C[C@H](NC(=O)[C@@H]1O[C@H]1C(=O)[O-])C(=O)N1CCN(Cc2ccccc2)CC1.[Na+],MLD (in column LD50 mice),[1],> 1125 mg/kg
same,inhibition in vivo at 200 mg/kg,[2]; [4],20.1%
same,Necrotic area (mean ± S.E. %),[2]; [5],11.9 ± 0.6%
"CC(C)NCC(O)COc1cccc2ccccc12 (stereo not drawn) [Propranolol hydrochloride, reference compound]",inhibition in vivo at 1 mg/kg,"[2]; Oryctolagus cuniculus, iv, 24 h, T = 1 mg/kg, i.v., vs control 14.6 ± 1.0, read-out: Inhibition rates (%)",6.2%
same,inhibition in vivo at 2 mg/kg,"[2]; Oryctolagus cuniculus, iv, 24 h, T = 2 mg/kg, i.v., vs control 14.6 ± 1.0, read-out: Inhibition rates (%)",23.3%
same,inhibition in vivo at 4 mg/kg,"[2]; Oryctolagus cuniculus, iv, 24 h, T = 4 mg/kg, i.v., vs control 14.6 ± 1.0, read-out: Inhibition rates (%)",26.7%
same,Necrotic area (mean ± S.E. %),"[2]; T = 1 mg/kg, i.v., 8 cases, control 14.6 ± 1.0",13.7 ± 1.1%
CCN1CCN(C(=O)[C@H](CC(C)C)NC(=O)[C@@H]2O[C@H]2C(=O)[O-])CC1.[Na+],MLD (in column LD50 mice),[1],> 1125 mg/kg
same,inhibition in vivo at 200 mg/kg,[2]; [4],20.8%
same,Necrotic area (mean ± S.E. %),[2]; [5],11.8 ± 0.9%
COc1ccc(CN2CCN(C(=O)[C@H](CC(C)C)NC(=O)[C@H]3O[C@@H]3C(=O)[O-])CC2)c(OC)c1OC.[Na+],MLD (in column LD50 mice),[1],> 1125 mg/kg
same,inhibition in vivo at 200 mg/kg,[2]; [6],24.1%
same,Necrotic area (mean ± S.E. %),[2]; [7],10.7 ± 0.9%
CC(C)C[C@H](NC(=O)C1OC1C(=O)O)C(=O)N1CCN(C(c2ccccc2)c2ccccc2)CC1 (stereo partly drawn) [Compound 1],LD50,[3],174 mg/kg
same,inhibition in vivo at 80 mg/kg,"[2]; Oryctolagus cuniculus, iv, 24 h, T = 80 mg/kg, i.v., vs control 14.9 ± 0.7, read-out: Inhibition rates (%)",24.8%
same,Necrotic area (mean ± S.E. %),"[2]; T = 80 mg/kg, i.v., 8 cases, control 14.9 ± 0.7",11.2 ± 0.5%
"CCOC(=O)[C@H]1O[C@@H]1C(=O)N[C@@H](CC(C)C)C(=O)N1CCN(Cc2ccc(OC)c(OC)c2OC)CC1 [Compound 12, Ethyl (2S,3S)-3-[(s)-3-methyl-1-{4-(2,3,4-trimethoxyphenylmethyl)piperazine-1-ylcarbonyl}butylcarbamoyl]oxirane-2-carboxylate 1/2 sulfate]",LD50,[3],345 mg/kg
same,inhibition in vivo at 40 mg/kg,[2]; [8],19.9%
same,Necrotic area (mean ± S.E. %),[2]; [9],11.3 ± 1.2%
CC(C)C[C@H](NC(=O)[C@@H]1O[C@H]1C(=O)[O-])C(=O)N1CCN(CC=Cc2ccccc2)CC1.[Na+],MLD (in column LD50 mice),[1],1000 to 1125 mg/kg
same,inhibition in vivo at 100 mg/kg,"[2]; Oryctolagus cuniculus, iv, 24 h, read-out: Inhibition rates (%), T = 100 mg/kg, i.v., vs control 14.9 ± 0.7",25.5%
same,Necrotic area (mean ± S.E. %),"[2]; T = 100 mg/kg, i.v., 8 cases, control 14.9 ± 0.7",11.1 ± 0.6%
CC(C)C[C@H](NC(=O)[C@@H]1O[C@H]1C(=O)[O-])C(=O)N1CCN(c2ncccn2)CC1.[Na+] [listing 2 of 2 here],MLD (in column LD50 mice),[1],> 1125 mg/kg
same,inhibition in vivo at 200 mg/kg,[2]; [4],25.5%
same,Necrotic area (mean ± S.E. %),[2]; [5],11.1 ± 0.8%
COc1ccc(CN2CCN(C(=O)[C@H](CC(C)C)NC(=O)[C@@H]3O[C@H]3C(=O)[O-])CC2)c(OC)c1OC.[Na+] [listing 1 of 2 here],inhibition in vivo at 200 mg/kg,[2]; [6],30.5%
same,Necrotic area (mean ± S.E. %),[2]; [7],9.8 ± 0.9%
"CCOC(=O)C1OC1C(=O)N[C@@H](CC(C)C)C(=O)N1CCN(Cc2ccc(OC)c(OC)c2OC)CC1 (stereo partly drawn) [Compound 10, Ethyl trans-3-[(s)-3-methyl-1-{4-(2,3,4-trimethoxyphenylmethyl)piperazine-1-ylcarbonyl}butylcarbamoyl]oxirane-2-carboxylate 1/2 sulfate]",inhibition in vivo at 40 mg/kg,[2]; [8],25.5%
same,Necrotic area (mean ± S.E. %),[2]; [9],10.5 ± 1.1%
"CCOC(=O)[C@@H]1O[C@H]1C(=O)N[C@@H](CC(C)C)C(=O)N1CCN(Cc2ccc(OC)c(OC)c2OC)CC1 [Compound 11, Ethyl (2R,3R)-3-[(s)-3-methyl-1-{4-(2,3,4-trimethoxyphenylmethyl)piperazine-1-ylcarbonyl}butylcarbamoyl]oxirane-2-carboxylate 1/2 sulfate]",LD50,[3],374 mg/kg
same,inhibition in vivo at 40 mg/kg,[2]; [8],29.1%
same,Necrotic area (mean ± S.E. %),[2]; [9],10.0 ± 1.0%
"COc1ccc(CN2CCN(C(=O)[C@H](CC(C)C)NC(=O)C3OC3C(=O)OCC(C)C)CC2)c(OC)c1OC (stereo partly drawn) [Compound 9, Isobutyl trans-3-[(s)-3-methyl-1-{4-(2,3,4-trimethoxyphenylmethyl)piperazine-1-ylcarbonyl}butylcarbamoyl]oxirane-2-carboxylate 1/2 sulfate]",LD50,[3],440 mg/kg
same,inhibition in vivo at 40 mg/kg,[2]; [8],18.4%
same,Necrotic area (mean ± S.E. %),[2]; [9],11.5 ± 1.2%
COc1ccc(CN2CCN(C(=O)[C@H](CC(C)C)NC(=O)[C@@H]3O[C@H]3C(=O)[O-])CC2)c(OC)c1OC.[Na+] [listing 2 of 2 here],MLD (in column LD50 mice),[1],> 1125 mg/kg
same,inhibition in vivo at 200 mg/kg,[2]; [4],29.5%
same,Necrotic area (mean ± S.E. %),[2]; [5],10.5 ± 0.9%
COc1ccc(CN2CCN(C(=O)[C@H](CC(C)C)NC(=O)[C@@H]3O[C@H]3C(=O)[O-])CC2)cc1.[Na+],MLD (in column LD50 mice),[1],> 1125 mg/kg
same,inhibition in vivo at 200 mg/kg,[2]; [4],20.1%
same,Necrotic area (mean ± S.E. %),[2]; [5],11.9 ± 0.8%
"COc1ccc(CCN(C)CCCC(C#N)(c2ccc(OC)c(OC)c2)C(C)C)cc1OC (racemic) [Verapanil hydrochloride, reference compound]",inhibition in vivo at 2 mg/kg,"[2]; Oryctolagus cuniculus, iv, 24 h, read-out: Inhibition rates (%), T = 2 mg/kg, i.v., vs control 14.6 ± 1.0",24.7%
same,Necrotic area (mean ± S.E. %),"[2]; T = 2 mg/kg, i.v., 7 cases (propranolol), 10 cases (verapanil), control 14.6 ± 1.0",11.0 ± 1.3%
CC(C)C[C@H](NC(=O)[C@H]1O[C@@H]1C(=O)[O-])C(=O)N1CCN(c2ncccn2)CC1.[Na+],MLD (in column LD50 mice),[1],> 1125 mg/kg
same,inhibition in vivo at 200 mg/kg,[2]; [6],26%
same,Necrotic area (mean ± S.E. %),[2]; [7],10.7 ± 0.4%
